Here are results for 89 molecules from PubChem BioAssay AID1648 (Sanford-Burnham Center for Chemical Genomics, 2009).

The assay has as its target Serine/threonine-protein kinase mTOR (Homo sapiens) (UniProt P42345). Description: mTOR FRB domain ligand binding – biophysical, NMR (AID 1648). The following applies: NMR binding to FRB domain, chemical shift.

SMILES strings stand for the structures. Active and inactive are the calls of the source. No rule for the calls is given here. Bounds are passed on as bounds.

Chain of Serine/threonine-protein kinase mTOR (Homo sapiens) (P42345 2015-2114): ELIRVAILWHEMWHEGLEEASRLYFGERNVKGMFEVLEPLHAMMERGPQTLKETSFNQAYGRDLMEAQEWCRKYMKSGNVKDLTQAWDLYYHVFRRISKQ

What is called Kd is the free concentration of one partner at which half of the binding sites on the other are occupied at equilibrium, for simple one-to-one binding. In the case of `CCOC(=O)c1c(SC)nc(=O)[nH]c1C`, the Kd was > 4 mM (inactive).

As for `CC1=CC2C(CC1=O)C(C)=CCC2C(C)C` (centres undefined), the Kd is > 4 mM (inactive).

Regarding `COc1cc(-c2coc3cc(O[C@@H]4O[C@H](CO)[C@@H](O)[C@H](O)[C@H]4O)c(OC)c(O)c3c2=O)cc(O)c1OC`, the Kd was > 4 mM (inactive).

As to `CC(C)=CCC/C(C)=C/CC/C(C)=C/CC/C(C)=C/CC/C(C)=C/CC/C(C)=C/CC/C(C)=C/CC/C(C)=C/CC/C(C)=C/CO`, the Kd was > 4 mM (inactive).

Take `Cc1cc(=O)n2[nH]c(C)cc2n1`: the Kd was > 4 mM (inactive).

In the case of `CC(C)(O)[C@@H]1[C@H]2OC(=O)[C@@H]1[C@]1(O)C[C@H]3O[C@]34C(=O)O[C@H]2[C@]14C`, the Kd is > 4 mM (inactive).

Turning to `OCCOc1ccc(C2=NCCO2)cc1`, the Kd is > 4 mM (inactive).

For the molecule `Cc1cc(C)cc(C(=O)N2CCC(C(N)=O)CC2)c1`, the Kd was > 4 mM (inactive).

For `CCOC(=O)CC1NCCNC1=O` (centres undefined), the Kd is > 4 mM (inactive).

Turning to `c1ccc(SCc2nc(-c3cccnc3)no2)cc1`, the Kd is > 4 mM (inactive).

Take `COc1ccc(C(C)=O)c(OC)c1`: the Kd is > 4 mM (inactive).

With `O=C1CCC(=O)N1c1cccnc1`, the Kd is > 4 mM (inactive).

Take `CC1(C)C(=O)N(O)C(C)(C)C(=O)N1O`: the Kd is > 4 mM (inactive).

Consider `C=C[C@@H](C1=CC(=O)C(OC)=C(OC)C1=O)c1ccccc1`, for which the Kd is > 4 mM (inactive).

As to `CC(=O)OC1CCC2(C)C(=CC=C3C2CCC2(C)C3CCC2C(C)/C=C/C(C)C(C)C)C1(C)C` (centres undefined), the Kd is > 4 mM (inactive).

For `O=C(O)C1CC(=O)N(Cc2ccco2)C1` (centres undefined), the Kd was > 4 mM (inactive).

For the molecule `O=C(NCc1ccccn1)c1ccc(Br)s1`, the Kd is > 4 mM (inactive).

As to `C[C@@H]1O[C@@H](O[C@H]2[C@H](Oc3cc(O)c4c(=O)cc(-c5ccc(O)cc5)oc4c3)O[C@H](CO)[C@@H](O)[C@@H]2O)[C@H](O)[C@H](O)[C@H]1O`, the Kd is > 4 mM (inactive).

For the molecule `COC(=O)c1ccc2ncccc2c1`, the Kd was > 4 mM (inactive).

As for `O=C(O)/C=C/C=C/c1ccccc1`, the Kd was > 4 mM (inactive).

For the molecule `Cc1n[nH]c(C)c1CN`, the Kd was > 4 mM (inactive).

With `COc1cc(C(C)=O)ccc1OCC(O)Cn1ccnc1` (centres undefined), the Kd was > 4 mM (inactive).

In the case of `COc1ccc2cc1Oc1ccc(cc1)C[C@H]1c3cc(c(OC)cc3CCN1C)Oc1c(OC)c(OC)cc3c1[C@H](C2)N(C)CC3`, the Kd is > 4 mM (inactive).

Turning to `Cc1cc(C)n(CC(=O)O)n1`, the Kd was > 4 mM (inactive).

In the case of `C[C@@H]1OC(O[C@H]2[C@H](OC(=O)[C@]34CCC(C)(C)CC3C3=CCC5[C@@]6(C)CC[C@H](OC7O[C@@H](C)[C@H](O[C@@H]8OC[C@@H](O)[C@H](O)[C@H]8O)[C@@H](O)[C@H]7O)C(C)(C)C6CC[C@@]5(C)[C@]3(C)CC4O)OC[C@H](O)[C@H]2O)[C@H](O)[C@H](O)[C@H]1O[C@@H]1O[C@H](CO)[C@@H](O)[C@H](O)[C@H]1O` (some centres undefined), the Kd is > 4 mM (inactive).

Consider `CSc1ccn(CCC(=O)O)c(=O)n1`, for which the Kd was > 4 mM (inactive).

Take `CN1CCN(C(=O)/C=C\C(=O)O)CC1`: the Kd is > 4 mM (inactive).

For `Cc1ccc(N2C(=O)CC(Sc3ncn[nH]3)C2=O)cc1` (centres undefined), the Kd was > 4 mM (inactive).

On to `Nc1nc2ccccc2n1CCN1CCCC1`, for which the Kd is > 4 mM (inactive).

On to `O=C(NCc1cccc(Cl)c1)c1cnccn1`, for which the Kd was > 4 mM (inactive).

On to `O=C1C[C@@H](c2ccccc2)Oc2cc(O)cc(O)c21`, for which the Kd was > 4 mM (inactive).

On to `O=C(O)c1sccc1-n1cccc1`, for which the Kd was > 4 mM (inactive).

Turning to `NC1=NCc2ccccc21`, the Kd is > 4 mM (inactive).

Take `O=S(=O)(c1ccc(F)c(Cl)c1)N1CCCC1`: the Kd was > 4 mM (inactive).

For `Nc1nc(=S)n2c(n1)oc1ccccc12`, the Kd is > 4 mM (inactive).

Take `CC(=O)NC(=S)Nc1ccccc1C(N)=O`: the Kd is > 4 mM (inactive).

As for `COc1ccc(NC(=O)N2CCCCC2)cc1`, the Kd was > 4 mM (inactive).

`O=C1CN2C(=N1)N(Cc1ccccc1)c1ccccc12`: the Kd was > 4 mM (inactive).

With `CC(=O)c1ccc(CC2SC(N)=NC2=O)cc1` (centres undefined), the Kd was > 4 mM (inactive).

Turning to `O=C(Nc1ccncc1)c1c(F)cccc1F`, the Kd was > 4 mM (inactive).

For the molecule `O=C(O)c1ccnc2ccccc12`, the Kd is > 4 mM (inactive).

Regarding `Cc1nc2ccccc2c(=O)n1-c1cccc(O)c1`, the Kd was > 4 mM (inactive).

For `Cc1cccc(NC(=O)c2ccccc2C(=O)O)c1`, the Kd was > 4 mM (inactive).

As for `O=C(O)CCN1CCOCC1`, the Kd is > 4 mM (inactive).

For the molecule `Cc1cc(N(CN2CCCC2=O)C(=O)c2ccccc2)no1`, the Kd was > 4 mM (inactive).

Consider `C[C@H]1OC(O[C@H]2[C@@H](O)CC(O[C@H]3[C@@H](O)C[C@H](O[C@H]4CC[C@]5(C)C6CC[C@]7(C)[C@@H](C8=CC(=O)OC8)[C@@H](O)C[C@]7(O)[C@@H]6CC[C@@H]5C4)O[C@@H]3C)O[C@@H]2C)C[C@H](O)C1O` (some centres undefined), for which the Kd is > 4 mM (inactive).

Turning to `CC(=O)O[C@H]1C[C@@H](OC(C)=O)C(C)(C)C2CC(=O)[C@]3(C)C(CC[C@@]4(C)[C@H](c5ccoc5)OC(=O)[C@H]5O[C@]543)[C@]21C` (some centres undefined), the Kd is > 4 mM (inactive).

For `CN1CCN(C(=S)NC(=O)c2ccn(C)n2)CC1`, the Kd is > 4 mM (inactive).

As for `COC1=C(OC)C(=O)C(C/C=C(\C)CC/C=C(\C)CC/C=C(\C)CC/C=C(/C)CC/C=C(\C)CC/C=C(\C)CC/C=C(\C)CC/C=C(\C)CC/C=C(\C)CCC=C(C)C)=C(C)C1=O`, the Kd is > 4 mM (inactive).

As to `O=c1ccc2c([nH]1)CCCC2`, the Kd was > 4 mM (inactive).

Turning to `Cc1nnsc1C(=O)O`, the Kd was > 4 mM (inactive).

With `C/C=C/C=N/NC(=O)c1ccc(=O)n(C)c1`, the Kd is > 4 mM (inactive).

For `O=C1CSC(=O)N1CN1CCCC1`, the Kd is > 4 mM (inactive).

As for `CCC(/C=C/[C@@H](C)[C@H]1CCC2C3CC=C4C[C@@H](O)CC[C@]4(C)C3CC[C@@]21C)C(C)C` (some centres undefined), the Kd is > 4 mM (inactive).

Take `C[n+]1cccc(C(=O)[O-])c1`: the Kd is > 4 mM (inactive).

For the molecule `NC(=O)C1CCN(Cc2ccccc2)CC1`, the Kd was > 4 mM (inactive).

Regarding `CCSc1nc(N)c(NC(=O)c2ccco2)c(=O)[nH]1`, the Kd was > 4 mM (inactive).

Regarding `NC(=NCCC[C@H](N)C(=O)O)NC(CCC(=O)O)C(=O)O` (some centres undefined), the Kd is > 4 mM (inactive).

As to `COc1ccc2c(CC(=O)O)coc2c1`, the Kd was > 4 mM (inactive).

On to `COc1c2c(cc3c1OCO3)CCN(C)C2`, for which the Kd was > 4 mM (inactive).

Consider `CS(=O)(=O)Nc1cc2c3c(c1)CCN3C(=O)CC2`, for which the Kd is > 4 mM (inactive).

On to `O=C1CC(N2CCC(O)CC2)C(=O)N1c1ccc(F)cc1` (centres undefined), for which the Kd was > 4 mM (inactive).

With `C/C=C(\C)C(=O)O[C@@H]1c2c(ccc3ccc(=O)oc23)OC(C)(C)[C@@H]1OC(C)=O`, the Kd was > 4 mM (inactive).

Turning to `COc1ccc(C(=O)/C=C/c2ccccc2)cc1`, the Kd is > 4 mM (inactive).

Consider `OCc1ccc2nonc2c1`, for which the Kd was > 4 mM (inactive).

For `O=C(O)c1cc(O)c2c(c1)[C@@H]([C@H]1c3cc(C(=O)O)cc(O)c3C(=O)c3c(O[C@H]4O[C@H](CO)[C@@H](O)[C@H](O)[C@H]4O)cccc31)c1cccc(O[C@H]3O[C@H](CO)[C@@H](O)[C@H](O)[C@H]3O)c1C2=O`, the Kd is > 4 mM (inactive).

As for `CCCCCCCCCCCC1=C(O)C(=O)C=C(O)C1=O`, the Kd was > 4 mM (inactive).

As for `Nc1nncn1C(=O)c1c(Cl)cccc1Cl`, the Kd is > 4 mM (inactive).

Turning to `c1ccc2c(c1)CN1CCCC1=N2`, the Kd is > 4 mM (inactive).

`CC(=O)NN1C(=O)c2cccc3cccc(c23)C1=O`: the Kd was > 4 mM (inactive).

Take `OCc1cccc2nonc12`: the Kd was > 4 mM (inactive).

As to `Cc1cc(O)c2c(c1O)C(=O)c1c(O)cc(C)c(O)c1C2=O`, the Kd was > 4 mM (inactive).

On to `NC(=O)CSc1nnc2ccc3ccccc3n12`, for which the Kd was > 4 mM (inactive).

With `CCOC(=O)c1c[nH]c2c(F)cccc2c1=O`, the Kd is > 4 mM (inactive).

As for `CC(=O)N1CC2(C)CN(C(C)=O)CC(C)(C1)C2`, the Kd was > 4 mM (inactive).

In the case of `Cc1ncoc1C(=O)Nc1ncc([N+](=O)[O-])s1`, the Kd is > 4 mM (inactive).

With `CCOC(=O)Cc1nc2ccccc2[nH]1`, the Kd was > 4 mM (inactive).

Take `O=C1NC(=O)C(C2SC(=O)NC2=O)S1` (centres undefined): the Kd was > 4 mM (inactive).

With `CCn1nnc2c(NCc3ccccn3)ncnc21`, the Kd is > 4 mM (inactive).

In the case of `COC(=O)C[C@H]1C2(C)CC34OC5(C)O[C@@]6([C@H](OC)C(OC(=O)C(C)C)[C@]7(C)C(/C(=C(/OC)C(C)C)C(=O)O[C@H]7c7ccoc7)[C@@]6(O5)[C@H](OC)[C@@]3(OC)C2OC(C)=O)[C@]14C` (some centres undefined), the Kd is > 4 mM (inactive).

For `O=C(O)c1cn(-c2ccccc2)nc1-c1cccnc1`, the Kd was > 4 mM (inactive).

On to `Cc1nn2c(=O)/c(=C/c3cccc(F)c3)sc2nc1=O`, for which the Kd is > 4 mM (inactive).

As to `CC1(C)C(=O)C=C[C@@]2(C)C1CC(=O)[C@]1(C)C2CC[C@@]2(C)[C@H](c3ccoc3)OC(=O)[C@H]3O[C@]321` (some centres undefined), the Kd is > 4 mM (inactive).

As to `Cc1nc(SCC(=O)c2c[nH]c3ccccc23)n[nH]1`, the Kd is > 4 mM (inactive).

On to `CC(=O)O[C@H]1CCC2(C)C3=C(CCC2C1(C)C)[C@]1(C)CCC(C(C)CCC=C(C)C)[C@@]1(C)CC3` (some centres undefined), for which the Kd is > 4 mM (inactive).

In the case of `c1ccc(-c2csc(Nc3cccnc3)n2)nc1`, the Kd is > 4 mM (inactive).

`Cc1occc1C(=O)NCc1ccccc1F`: the Kd was > 4 mM (inactive).

On to `Nc1cccc(NC(=O)c2cccs2)c1`, for which the Kd is > 4 mM (inactive).

With `COc1ccc(-c2coc3cc(OC)cc(OC)c3c2=O)cc1`, the Kd is > 4 mM (inactive).
